Results reported in US9938262B2, “Benzamides” (Merck Patent GmbH, priority 2011, dated 2018).
Read-outs that look alike come from different tables or passages of the source.

Biological target: T1, FSHR (Homo sapiens, UniProt P23945)
T1 construct: expressed in transfected cells; host or cells: CHO (Cho-FSHR-LUC-1-1-43)
Assay: EC50 of cyclic AMP production in CHO FSHR cells + EC20 FSH (Assay A)
Format: cell-based
Conditions: for EC50: CHO FSHR cells + EC20 FSH, read-out: Assay A EC50 of cyclic AMP production; for activation at 5 µM: 1 h, effect relative to maximum response of the FSH standard
Method in brief: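 cAMP HTRF ratio (665/620 nm) read after 1 h, 37 °C exposure of CHO-FSHR cells to compound in presence of EC20 FSH ([…]) and IBMX 200 μM. Responses given relative to FSH standard maximum; EC50 derived.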

T1 sequence (P23945 18-695): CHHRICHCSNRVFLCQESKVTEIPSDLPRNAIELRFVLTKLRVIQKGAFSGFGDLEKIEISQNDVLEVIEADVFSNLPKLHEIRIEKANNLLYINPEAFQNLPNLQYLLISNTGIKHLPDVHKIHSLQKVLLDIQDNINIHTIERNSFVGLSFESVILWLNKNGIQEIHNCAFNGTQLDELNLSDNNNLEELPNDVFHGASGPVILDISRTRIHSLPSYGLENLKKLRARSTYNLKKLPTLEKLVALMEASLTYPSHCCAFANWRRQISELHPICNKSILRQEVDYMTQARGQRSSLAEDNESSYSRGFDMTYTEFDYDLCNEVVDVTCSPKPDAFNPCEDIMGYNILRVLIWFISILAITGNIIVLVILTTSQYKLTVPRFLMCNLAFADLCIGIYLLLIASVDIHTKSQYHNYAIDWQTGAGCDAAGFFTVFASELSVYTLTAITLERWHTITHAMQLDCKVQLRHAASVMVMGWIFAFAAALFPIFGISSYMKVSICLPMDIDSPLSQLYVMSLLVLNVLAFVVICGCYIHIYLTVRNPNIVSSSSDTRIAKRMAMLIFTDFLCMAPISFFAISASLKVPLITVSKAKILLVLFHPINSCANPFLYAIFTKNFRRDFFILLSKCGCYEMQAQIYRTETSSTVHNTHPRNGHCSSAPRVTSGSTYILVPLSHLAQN
T1 sequence (P01215 25-116 partner): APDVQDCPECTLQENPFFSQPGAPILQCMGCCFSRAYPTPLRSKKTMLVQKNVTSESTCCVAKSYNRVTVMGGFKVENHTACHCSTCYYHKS
T1 sequence (P01225 19-129 partner): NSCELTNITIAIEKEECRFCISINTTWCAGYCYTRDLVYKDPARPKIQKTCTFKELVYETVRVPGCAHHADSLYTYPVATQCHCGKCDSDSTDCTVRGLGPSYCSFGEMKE

Compound	EC50 (Table 2) [nM]	also measured
Cc1ccc(C(=O)Nc2cc(C(=O)NCCCNC(=O)OC(C)(C)C)ccc2N2CCN(c3ccccc3C)CC2)o1 [Compound 258, {3-[3-[(5-Methyl-furan-2-carbonyl)-amino]-4-(4-o-tolyl-piperazin-1-yl)-benzoylamino]-propyl}-carbamic acid tert-butyl ester]		EC50 (Table 1): 1000 to 10000 nM
CC(=O)NCCCNC(=O)c1ccc(N2CCN(c3ccccc3C)CC2)c(NC(=O)c2ccc(C)o2)c1 [Compound 259, 5-Methyl-furan-2-carboxylicacid [5-(3-acetylaminopropylcarbamoyl)-2-(4-o-tolyl-piperazin-1-yl)-phenyl]-amide]		EC50 (Table 1): 100 to 1000 nM
Cc1ccc(C(=O)Nc2cc(C(=O)NCCCN3CCCC3=O)ccc2N2CCN(c3ccccc3[N+](=O)[O-])CC2)o1 [Compound 261]		EC50 (Table 1): 1000 to 10000 nM
Cc1csc(-c2cccc(CNC(=O)c3ccc(N4CCN(c5ccccc5C)CC4)c(NC(=O)c4ccco4)c3)c2)n1 [Compound 262]		EC50 (Table 1): 100 to 1000 nM
Cc1ccccc1N1CCN(c2ccc(C(=O)NCc3cccc(S(N)(=O)=O)c3)cc2NC(=O)c2ccco2)CC1 [Compound 266]	< 100	
Cc1ccccc1N1CCN(c2ccc(C(=O)NC3(c4cccc(C(=O)O)c4)CC3)cc2NC(=O)c2ccco2)CC1 [Compound 267]	1000 to 10000	
CCNC(=O)NCCCNC(=O)c1ccc(N2CCN(c3ccccc3C)CC2)c(NC(=O)c2ccc(C)o2)c1 [Compound 270]	100 to 1000	
COC(=O)NCCCNC(=O)c1ccc(N2CCN(c3ccccc3C)CC2)c(NC(=O)c2ccc(C)o2)c1 [Compound 271]	100 to 1000	
Cc1ccc(C(=O)Nc2cc(C(=O)NCCCN3CCCC3=O)ccc2N2CCN(c3ccccc3N)CC2)o1 [Compound 272]		activation at 5 µM (Table 2): 30%
CC(C)(C)OC(=O)NC1CCN(c2ccc(C(=O)NCCCN3CCCC3=O)cc2NC(=O)c2coc(C3CC3)n2)CC1 [Compound 273]	1000 to 10000	
Cc1ccccc1N1CCN(c2ccc(C(=O)NCCCc3c[nH]cn3)cc2NC(=O)c2coc(C3CC3)n2)CC1 [Compound 274]	100 to 1000	
Cc1ccccc1N1CCN(c2ccc(C(=O)NCCCn3cccn3)cc2NC(=O)c2coc(C3CC3)n2)CC1 [Compound 275]	100 to 1000	
COc1cccc(CNC(=O)c2ccc(N3CCN(c4ccccc4C)CC3)c(NC(=O)c3coc(C4CC4)n3)c2)c1 [Compound 276]	100 to 1000	
COc1ccccc1CNC(=O)c1ccc(N2CCN(c3ccccc3C)CC2)c(NC(=O)c2coc(C3CC3)n2)c1 [Compound 277]	100 to 1000	
Cc1ccccc1N1CCN(c2ccc(C(=O)NCCCc3ccccc3)cc2NC(=O)c2coc(C3CC3)n2)CC1 [Compound 278]	1000 to 10000	
Cc1ccccc1N1CCN(c2ccc(C(=O)NCCCn3cccc3)cc2NC(=O)c2coc(C3CC3)n2)CC1 [Compound 279]	100 to 1000	
Cc1ccccc1N1CCN(c2ccc(C(=O)NCC(C)CN3CCCC3=O)cc2NC(=O)c2ccco2)CC1 (centres unmarked) [Compound 280]	100 to 1000	
CCC(CCNC(=O)c1ccc(N2CCN(c3ccccc3C)CC2)c(NC(=O)c2ccco2)c1)N1CCCC1=O (centres unmarked) [Compound 281]	100 to 1000	
Cc1ccccc1N1CCN(c2ccc(C(=O)NCCCC3CCOC3)cc2NC(=O)c2coc(C3CC3)n2)CC1 (centres unmarked) [Compound 282]	100 to 1000	
Cc1ccccc1N1CCN(c2ccc(C(N)=O)cc2NC(=O)c2ccco2)CC1 [Compound 283]	1000 to 10000	
Cc1ccccc1N1CCN(c2ccc(C(=O)NCCCN3CCCC3=O)cc2NC(=O)c2cc(C3CC3)n[nH]2)CC1 [Compound 284]	100 to 1000	
Cc1ccccc1N1CCN(c2ccc(C(=O)NCCCN3CCCC3=O)cc2NC(=O)c2nc(C3CC3)cs2)CC1 [Compound 285]	100 to 1000	
Cc1ccccc1N1CCN(c2ccc(C(=O)NCCN3CCCC3=O)cc2NC(=O)c2coc(C3CC3)n2)CC1 [Compound 288]	100 to 1000	
Cc1ccccc1N1CCN(c2ccc(C(=O)NCCCN3C(=O)CSC3=O)cc2NC(=O)c2coc(C3CC3)n2)CC1 [Compound 289]	100 to 1000	

Compound	EC50 (Table 2) [nM]	also measured
COc1ccc(CNC(=O)c2ccc(N3CCN(c4ccccc4C)CC3)c(NC(=O)c3coc(C4CC4)n3)c2)cc1OC [Compound 290]	100 to 1000	
Cc1ccccc1N1CCN(c2ccc(C(=O)NCCCn3ccnc3)cc2NC(=O)c2coc(C3CC3)n2)CC1 [Compound 291]	100 to 1000	
Cc1ccccc1N1CCN(c2ccc(C(=O)NCCCn3ccnc3C)cc2NC(=O)c2coc(C3CC3)n2)CC1 [Compound 292]	100 to 1000	
Cc1ccccc1N1CCN(c2ccc(C(=O)NCCc3c[nH]cn3)cc2NC(=O)c2coc(C3CC3)n2)CC1 [Compound 293]	100 to 1000	
Cc1ccccc1N1CCN(c2ccc(C(=O)NCC(=O)NC3CCCC3)cc2NC(=O)c2coc(C3CC3)n2)CC1 [Compound 294]	1000 to 10000	
COc1cc(CNC(=O)c2ccc(N3CCN(c4ccccc4C)CC3)c(NC(=O)c3coc(C4CC4)n3)c2)cc(OC)c1 [Compound 295]	100 to 1000	
Cc1ccccc1N1CCN(c2ccc(C(=O)NCCCN3C(=O)CN(C)C3=O)cc2NC(=O)c2coc(C3CC3)n2)CC1 [Compound 296]	100 to 1000	
Cc1ccccc1N1CCN(c2ccc(C(=O)NC3CCN(S(C)(=O)=O)CC3)cc2NC(=O)c2coc(C3CC3)n2)CC1 [Compound 297]	100 to 1000	
Cc1ccc(C(=O)Nc2cc(C(=O)NCCCN3CCCC3=O)ccc2N2CCN(c3c(C)cccc3C)CC2)o1 [Compound 298]	1000 to 10000	
Cc1cccc(C)c1N1CCN(c2ccc(C(=O)NCCCN3CCCC3=O)cc2NC(=O)c2coc(C3CC3)n2)CC1 [Compound 299]	1000 to 10000	
Cc1nc(C(=O)Nc2cc(C(=O)NCCc3cnc[nH]3)ccc2N2CCN(c3ccccc3C)CC2)cs1 [Compound 301]	1000 to 10000	
Cc1ccccc1N1CCN(c2ccc(C(=O)NCCc3cnc[nH]3)cc2NC(=O)C2CC2)CC1 [Compound 302]	1000 to 10000	
Cc1ccc(C(=O)Nc2cc(C(=O)NCCCO)ccc2N2CCN(c3ccccc3C)CC2)o1 [Compound 303]	1000 to 10000	
Cc1ccccc1N1CCN(c2ccc(C(=O)NCCN3C(=O)CCC3=O)cc2NC(=O)c2ccco2)CC1 [Compound 305]	< 100	
Cc1ccccc1N1CCN(c2ccc(C(=O)NCCCN3CCCC3=O)cc2NC(=O)c2cc(C3CC3)on2)CC1 [Compound 308]	100 to 1000	
Cc1ccccc1N1CCN(c2ccc(C(=O)N[C@H]3O[C@@H](CO)[C@@H]4OC(C)(C)O[C@@H]43)cc2NC(=O)c2coc(C3CC3)n2)CC1 [Compound 309]	100 to 1000	
Cc1cc(F)ccc1N1CCN(c2ccc(C(=O)NCCCN3CCCC3=O)cc2NC(=O)c2coc(C3CC3)n2)CC1 [Compound 312]	100 to 1000	
O=C(NCCCN1CCCC1=O)c1ccc(N2CCN(c3ccccc3Br)CC2)c(NC(=O)c2coc(C3CC3)n2)c1 [Compound 313]	100 to 1000	
CCOC(=O)c1c[nH]nc1NC(=O)c1ccc(N2CCN(c3ccccc3C)CC2)c(NC(=O)c2coc(C3CC3)n2)c1 [Compound 314]		activation at 5 µM (Table 2): 38%
Cc1ccccc1N1CCN(c2ccc(C(=O)NCCCN3CCCC3=O)cc2NC(=O)c2cc(C3CC3)nn2C)CC1 [Compound 315]		activation at 5 µM (Table 2): 47%
Cc1ccccc1N1CCN(c2ccc(C(=O)NCCc3cn(C)cn3)cc2NC(=O)c2coc(C3CC3)n2)CC1 [Compound 317]	100 to 1000	
CC(=O)NCCCCNC(=O)c1ccc(N2CCN(c3ccccc3C)CC2)c(NC(=O)c2coc(C3CC3)n2)c1 [Compound 318]	100 to 1000	
Cc1ccccc1N1CCN(c2ccc(C(=O)NCCCN3CCOC3=O)cc2NC(=O)c2coc(C3CC3)n2)CC1 [Compound 321]	100 to 1000	
